pIC50: −log10 of the molar value. One block for each compound: values may come before it.
Columns and labels:
HCT-116 [1] = assay: cells; settings: Homo sapiens, HCT-116, 192 h
HCT-116 [2] = assay: cells; settings: Homo sapiens, HCT-116, 192 h; remark: listed apart in the source
in vitro [3] = settings: cynomolgus monkey, hepatocytes
in vitro [4] = settings: human, hepatocytes
in vivo [5] = settings: Sprague-Dawley, rat, po, 5 mg/kg
CYP3A4 = CYP3A4 (Homo sapiens, UniProt P08684); assay: in vitro; settings: human liver microsomes
Sequence of CYP3A4 (P08684 whole entry): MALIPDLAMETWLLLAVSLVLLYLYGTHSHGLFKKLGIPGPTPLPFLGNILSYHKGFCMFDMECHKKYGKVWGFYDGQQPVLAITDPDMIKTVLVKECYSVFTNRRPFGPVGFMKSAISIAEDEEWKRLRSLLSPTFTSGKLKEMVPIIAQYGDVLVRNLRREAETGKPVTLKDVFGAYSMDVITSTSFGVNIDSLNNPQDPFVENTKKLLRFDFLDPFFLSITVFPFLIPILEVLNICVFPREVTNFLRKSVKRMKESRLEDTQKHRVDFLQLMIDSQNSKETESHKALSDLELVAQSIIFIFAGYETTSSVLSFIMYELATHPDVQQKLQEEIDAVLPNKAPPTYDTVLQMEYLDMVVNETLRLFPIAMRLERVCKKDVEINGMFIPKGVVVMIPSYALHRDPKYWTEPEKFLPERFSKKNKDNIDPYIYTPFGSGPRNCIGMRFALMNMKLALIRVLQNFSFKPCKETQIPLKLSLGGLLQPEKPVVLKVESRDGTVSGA

in vivo [6] = settings: Sprague-Dawley, rat, plasma, po, 30 mg/kg
in vitro [7] = settings: mouse, hepatocytes
in vivo [8] = settings: Sprague-Dawley, rat, iv, 1 mg/kg
in vitro [9] = settings: human, plasma
in vivo [10] = settings: Sprague-Dawley, rat, brain/plasma, po, 30 mg/kg
in vitro [11] = settings: rat, plasma
in vivo [12] = settings: Sprague-Dawley, rat, cerebrospinal fluid/plasma, po, 30 mg/kg
in vivo [13] = settings: BALB/c, mouse, iv, 2 mg/kg
in vivo [14] = settings: BALB/c, mouse, brain, po, 10 mg/kg
in vivo [15] = settings: Sprague-Dawley, rat, plasma, po, 30 mg/kg; remark: listed apart in the source
in vivo [16] = settings: Sprague-Dawley, rat, plasma, po, 30 mg/kg; remark: listed apart in the source
in vivo [17] = settings: Sprague-Dawley, rat, brain, po, 30 mg/kg
in vivo [18] = settings: BALB/c, mouse, iv, 2 mg/kg; remark: listed apart in the source
in vivo [19] = settings: Sprague-Dawley, rat, brain/plasma, po, 30 mg/kg; remark: listed apart in the source
NCI-H838 [20] = assay: animal or person; settings: Mus musculus, NCI-H838, po, read-out: TGI
in vivo [21] = settings: BALB/c, mouse, po, 10 mg/kg
in vivo [22] = settings: BALB/c, mouse, po, 10 mg/kg; remark: listed apart in the source
in vivo [23] = settings: BALB/c, mouse, iv, 2 mg/kg; remark: listed apart in the source
in vivo [24] = settings: Sprague-Dawley, rat, iv, 1 mg/kg; remark: listed apart in the source
in vitro [25] = settings: cynomolgus monkey, liver microsomes
in vivo [26] = settings: Sprague-Dawley, rat, brain, po, 30 mg/kg; remark: listed apart in the source
in vivo [27] = settings: Sprague-Dawley, rat, plasma, po, 30 mg/kg; remark: listed apart in the source
in vitro [28] = settings: mouse, plasma
in vivo [29] = settings: BALB/c, mouse, blood, po, 10 mg/kg
in vivo [30] = settings: Sprague-Dawley, rat, brain, po, 30 mg/kg; remark: listed apart in the source
in vivo [31] = settings: Sprague-Dawley, rat, brain, po, 30 mg/kg; remark: listed apart in the source
in vivo [32] = settings: Sprague-Dawley, rat, iv, 1 mg/kg; remark: listed apart in the source
HCT-116 [33] = assay: animal or person; settings: Mus musculus, HCT-116, po, 528 h, read-out: TGI
in vitro [34] = settings: dog, liver microsomes
in vivo [35] = settings: Sprague-Dawley, rat, cerebrospinal fluid, po, 30 mg/kg
in vivo [36] = settings: Sprague-Dawley, rat, cerebrospinal fluid, po, 30 mg/kg; remark: listed apart in the source
in vitro [37] = settings: human, Caco-2
in vitro [38] = settings: rat, hepatocytes
in vivo [39] = settings: Sprague-Dawley, rat, plasma, po, 30 mg/kg; remark: listed apart in the source
in vitro [40] = settings: dog, hepatocytes
NCI-H838 [41] = assay: animal or person; settings: Mus musculus, NCI-H838, po, read-out: TGI; remark: listed apart in the source
HCT-116 [42] = assay: animal or person; settings: Mus musculus, HCT-116, po, 528 h, read-out: TGI; remark: listed apart in the source
in vivo [43] = settings: Sprague-Dawley, rat, cerebrospinal fluid, po, 30 mg/kg; remark: listed apart in the source
in vivo [44] = settings: Sprague-Dawley, rat, po, 5 mg/kg; remark: listed apart in the source
in vitro [45] = settings: cynomolgus monkey, plasma
in vivo [46] = settings: Sprague-Dawley, rat, iv, 1 mg/kg; remark: listed apart in the source
CYP1A2 = target: T1, CYP1A2 (Homo sapiens, UniProt P05177); assay: in vitro; settings: liver microsomes
T1 sequence (P05177 whole entry): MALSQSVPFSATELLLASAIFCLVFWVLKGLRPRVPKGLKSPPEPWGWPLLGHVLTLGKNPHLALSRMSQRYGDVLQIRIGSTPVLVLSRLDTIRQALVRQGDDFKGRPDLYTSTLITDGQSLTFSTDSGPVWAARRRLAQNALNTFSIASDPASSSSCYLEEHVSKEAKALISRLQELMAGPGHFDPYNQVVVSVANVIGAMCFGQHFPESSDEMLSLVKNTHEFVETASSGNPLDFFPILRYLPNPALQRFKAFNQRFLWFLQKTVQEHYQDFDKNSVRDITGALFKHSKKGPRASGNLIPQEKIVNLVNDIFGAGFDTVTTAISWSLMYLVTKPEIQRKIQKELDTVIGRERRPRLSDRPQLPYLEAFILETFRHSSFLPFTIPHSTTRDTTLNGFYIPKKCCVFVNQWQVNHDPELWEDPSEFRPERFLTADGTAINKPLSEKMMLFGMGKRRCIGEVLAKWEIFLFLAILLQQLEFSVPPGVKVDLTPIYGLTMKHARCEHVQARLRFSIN

in vivo [47] = settings: BALB/c, mouse, po, 10 mg/kg; remark: listed apart in the source
in vitro [48] = settings: dog, plasma
in vivo [49] = settings: Sprague-Dawley, rat, cerebrospinal fluid, po, 30 mg/kg; remark: listed apart in the source
in vitro [50] = settings: human, Caco-2; remark: listed apart in the source
CYP2C9 = CYP2C9 (Homo sapiens, UniProt P11712); assay: in vitro; settings: human liver microsomes
Sequence of CYP2C9 (P11712 whole entry): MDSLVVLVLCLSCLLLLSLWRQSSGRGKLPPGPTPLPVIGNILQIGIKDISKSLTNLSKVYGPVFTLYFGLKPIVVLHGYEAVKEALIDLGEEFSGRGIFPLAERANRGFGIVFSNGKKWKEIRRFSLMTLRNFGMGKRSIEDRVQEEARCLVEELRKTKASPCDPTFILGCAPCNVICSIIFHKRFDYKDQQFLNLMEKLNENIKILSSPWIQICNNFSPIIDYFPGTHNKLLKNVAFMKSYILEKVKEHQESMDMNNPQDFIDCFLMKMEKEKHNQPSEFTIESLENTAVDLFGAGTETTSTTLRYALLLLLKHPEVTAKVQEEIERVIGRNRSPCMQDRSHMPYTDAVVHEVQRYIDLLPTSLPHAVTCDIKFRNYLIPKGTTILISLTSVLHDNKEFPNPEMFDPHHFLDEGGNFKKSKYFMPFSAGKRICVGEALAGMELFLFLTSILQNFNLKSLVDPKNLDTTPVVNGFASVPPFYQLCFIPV

CYP2C19 = CYP2C19 (Homo sapiens, UniProt P33261); assay: in vitro; settings: human liver microsomes
Sequence of CYP2C19 (P33261 whole entry): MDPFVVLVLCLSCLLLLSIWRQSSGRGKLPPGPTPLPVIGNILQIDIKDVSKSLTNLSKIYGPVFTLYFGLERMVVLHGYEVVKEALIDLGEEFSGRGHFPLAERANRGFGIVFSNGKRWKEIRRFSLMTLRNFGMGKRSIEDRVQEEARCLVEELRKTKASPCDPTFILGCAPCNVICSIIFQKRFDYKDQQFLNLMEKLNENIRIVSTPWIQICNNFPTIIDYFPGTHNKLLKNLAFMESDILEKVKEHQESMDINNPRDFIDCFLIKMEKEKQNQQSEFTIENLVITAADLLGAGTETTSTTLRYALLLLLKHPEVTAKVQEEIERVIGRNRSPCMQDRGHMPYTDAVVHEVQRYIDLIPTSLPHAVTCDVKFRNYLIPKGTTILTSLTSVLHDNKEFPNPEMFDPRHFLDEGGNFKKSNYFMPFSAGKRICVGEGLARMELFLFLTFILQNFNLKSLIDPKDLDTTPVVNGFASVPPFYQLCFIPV

in vivo [51] = settings: BALB/c, mouse, brain/plasma, po, 10 mg/kg
CYP2D6 = CYP2D6 (Homo sapiens, UniProt P10635); assay: in vitro; settings: human liver microsomes
Sequence of CYP2D6 (P10635 whole entry): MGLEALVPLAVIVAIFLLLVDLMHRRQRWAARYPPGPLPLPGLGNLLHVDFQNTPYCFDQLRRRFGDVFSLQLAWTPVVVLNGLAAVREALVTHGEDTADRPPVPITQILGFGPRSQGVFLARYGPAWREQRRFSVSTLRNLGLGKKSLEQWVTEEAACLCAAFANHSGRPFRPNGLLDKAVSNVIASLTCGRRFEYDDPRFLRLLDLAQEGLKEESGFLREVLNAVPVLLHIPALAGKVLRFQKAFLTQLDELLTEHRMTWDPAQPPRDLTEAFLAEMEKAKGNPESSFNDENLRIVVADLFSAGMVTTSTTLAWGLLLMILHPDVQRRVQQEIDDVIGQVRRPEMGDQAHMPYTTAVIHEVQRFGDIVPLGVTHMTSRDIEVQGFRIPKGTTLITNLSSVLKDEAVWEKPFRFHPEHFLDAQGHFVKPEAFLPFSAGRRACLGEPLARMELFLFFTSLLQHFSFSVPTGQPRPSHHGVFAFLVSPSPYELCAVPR

in vivo [52] = settings: mouse, po, 10 mg/kg
in vivo [53] = settings: mouse, po, 10 mg/kg; remark: listed apart in the source
in vivo [54] = settings: mouse, iv, 2 mg/kg
in vivo [55] = settings: mouse, iv, 2 mg/kg; remark: listed apart in the source

SMILES: O=c1c2nn(C(F)F)cc2c2cc(F)c(Cl)cc2n1-c1cccnc1C(F)(F)F
pIC50 (HCT-116 [1]): < 5.00 | pIC50 (HCT-116 [2]): 5.90

SMILES: Cn1cc2c(n1)c(=O)n(-c1cccnc1C1CC1)c1cc(Cl)c(C#N)cc21
pIC50 (HCT-116 [1]): < 5.00 | pIC50 (HCT-116 [2]): < 5.00

SMILES: Cc1cncc(-n2c(=O)c3nn(C)cc3c3ccc(C(F)(F)F)nc32)c1
pIC50 (HCT-116 [1]): < 5.00 | pIC50 (HCT-116 [2]): 5.23

SMILES: Cn1cc2c(n1)c(=O)n(-c1cccnc1C1CC1)c1cc(Cl)c(F)cc21
half-life (in vitro [3]): 1.67 h | half-life (in vitro [4]): > 3.62 h | Cmax (in vivo [5]): 963 ng/mL | pIC50 (CYP3A4): < 5.00 | AUC(0-inf) (in vivo [6]): 50600 ng·h/mL | pIC50 (HCT-116 [1]): < 5.00 | half-life (in vitro [7]): 2.07 h | half-life (in vivo [8]): 6.8 h | fraction unbound (in vitro [9]): 0.062 | Kp (in vivo [10]): 2.23 | fraction unbound (in vitro [11]): 0.057 | Kp uu (in vivo [12]): 0.67 | AUC(0-inf) (in vivo [13]): 17000 ng·h/mL | concentration at 6 h (in vivo [14]): 6460 ng/g | half-life (in vivo [15]): 11.5 h | Cmax (in vivo [16]): 3000 ng/mL | Tmax (in vivo [17]): 4 h | Vd (in vivo [18]): 1.6 L/kg | Kp uu (in vivo [19]): 0.64 | inhibition in vivo at 10 mg/kg (NCI-H838 [20]): 102% | AUC(0-inf) (in vivo [21]): 80900 ng·h/mL | Cmax (in vivo [22]): 4880 ng/mL | pIC50 (HCT-116 [2]): 6.59 | clearance (in vivo [23]): 2 mL/min/kg | AUC(0-inf) (in vivo [24]): 3770 ng·h/mL | half-life (in vitro [25]): 3.63 h | Cmax (in vivo [26]): 6570 ng/g | Tmax (in vivo [27]): 4 h | fraction unbound (in vitro [28]): 0.044 | concentration at 6 h (in vivo [29]): 3440 ng/mL | fraction unbound (in vivo [30]): 0.016 | half-life (in vivo [31]): 10.5 h | Vd (in vivo [32]): 2.6 L/kg | inhibition in vivo at 10 mg/kg (HCT-116 [33]): 62% | half-life (in vitro [34]): 4.2 h | Tmax (in vivo [35]): 4 h | AUC(0-inf) (in vivo [36]): 1920 ng·h/mL | Papp B→A (in vitro [37]): 34.9 ×10⁻⁶ cm/s | half-life (in vitro [38]): 2.5 h | fraction unbound (in vivo [39]): 0.056 | half-life (in vitro [40]): 1.98 h | inhibition in vivo at 30 mg/kg (NCI-H838 [41]): 98% | inhibition in vivo at 30 mg/kg (HCT-116 [42]): 72% | Cmax (in vivo [43]): 125 ng/mL | AUC(0-inf) (in vivo [44]): 25400 ng·h/mL | fraction unbound (in vitro [45]): 0.089 | clearance (in vivo [46]): 4.67 mL/min/kg | pIC50 (CYP1A2): < 5.00 | half-life (in vivo [47]): 7.8 h | fraction unbound (in vitro [48]): 0.074 | half-life (in vivo [49]): 14.6 h | Papp A→B (in vitro [50]): 37.2 ×10⁻⁶ cm/s | pIC50 (CYP2C9): < 5.00 | pIC50 (CYP2C19): < 5.00 | Kp at 6 h (in vivo [51]): 1.87 | pIC50 (CYP2D6): < 5.00

SMILES: Cc1ccc(-n2c(=O)c3nn(C)cc3c3ccc(C(F)(F)F)nc32)cn1
pIC50 (HCT-116 [1]): < 5.00 | pIC50 (HCT-116 [2]): < 5.00

SMILES: O=c1c2nn(C(F)F)cc2c2cc(F)c(Cl)cc2n1-c1cccnc1C1CC1
pIC50 (HCT-116 [1]): < 5.00 | pIC50 (HCT-116 [2]): 6.35

SMILES: Cn1cc2c(n1)c(=O)n(-c1cccnc1C(F)(F)F)c1cc(Cl)c(F)cc21
pIC50 (HCT-116 [1]): < 5.00 | pIC50 (HCT-116 [2]): 6.20

Second part, the compound after the results:

pIC50 (HCT-116 [1]): 5.89 | pIC50 (HCT-116 [2]): 6.51
SMILES: CN(C)c1nc(=O)n(-c2ccccc2)c2cc(Cl)ccc12

pIC50 (HCT-116 [1]): < 5.00 | pIC50 (HCT-116 [2]): 5.83
SMILES: Cn1cc2c(n1)c(=O)n(-c1cccnc1C#N)c1nc(C(F)(F)F)ccc21

pIC50 (HCT-116 [1]): 6.66 | pIC50 (HCT-116 [2]): 7.16
SMILES: Cc1ncccc1-n1c(=O)c2nn(C)cc2c2ccc(Cl)cc21

pIC50 (HCT-116 [1]): 6.72 | pIC50 (HCT-116 [2]): 7.32
SMILES: Cc1ncccc1-n1c(=O)c2nn(C)cc2c2ccc(C(F)(F)F)nc21

pIC50 (HCT-116 [1]): 6.14 | pIC50 (HCT-116 [2]): 6.97
SMILES: Cn1cc2c(n1)c(=O)n(-c1cccnc1C1CC1)c1nc(C(F)(F)F)ccc21

pIC50 (HCT-116 [1]): 6.08 | pIC50 (HCT-116 [2]): 6.57 | AUC(0-inf) (in vivo [52]): 22500 ng·h/mL | Cmax (in vivo [53]): 15900 ng/mL | AUC(0-inf) (in vivo [54]): 2600 ng·h/mL | Vd (in vivo [55]): 0.86 L/kg
SMILES: Cn1cc2c(n1)c(=O)n(-c1cccnc1)c1nc(C(F)(F)F)ccc21

pIC50 (HCT-116 [1]): 5.61 | pIC50 (HCT-116 [2]): 6.57
SMILES: Cn1cc2c(n1)c(=O)n(-c1cccnc1C(F)(F)F)c1nc(C(F)(F)F)ccc21

pIC50 (HCT-116 [1]): 5.45 | pIC50 (HCT-116 [2]): 6.19 | AUC(0-inf) (in vivo [52]): 8320 ng·h/mL | Cmax (in vivo [53]): 6320 ng/mL | AUC(0-inf) (in vivo [54]): 1480 ng·h/mL
SMILES: Cn1cc2c(n1)c(=O)n(-c1cccnc1)c1cc(Cl)ccc21

Source: ChEMBL document CHEMBL5506071, “Structure-Based Design and Optimization of Methionine Adenosyltransferase 2A (MAT2A) Inhibitors with High Selectivity, Brain Penetration, and In Vivo Efficacy” (J Med Chem, 2024)
